Where a name gives a salt, the structure may show the parent alone.
Tests used:
[1] = target: full-length FLAG-tagged B-Raf(V600E) (Homo sapiens (Human), UniProt P15056, V600E); test: BRAF V600E enzyme assay (TR-FRET competitive displacement); type: binding; conditions: averaged IC50; TR-FRET tracer displacement, 60 min
Procedure: A competitive displacement assay was configured for B-Raf that monitors the amount of a fluorescently-tagged “tracer” bound to B-Raf via TR-FRET from an anti-tag Eu-labeled antibody also bound to B-Raf. For full-length FLAG-tagged B-Raf(V600E), the assay mixtures consisted of 25 mM K^+HEPES, pH 7.4, 10 mM MgCl2, 0.01% Triton X-100, 1 mM DTT, 2% DMSO (from compound), 50 nM Tracer 1710 (ThermoFisher, PR9176A), 0.5 nM Eu anti-FLAG (M2)-cryptate Ab (Cisbio, 61FG2KLB) and 5 nM full-length, N-terminally FLAG-tagged B-Raf(V600E) (Origene Technologies, TP700031. Compounds were typically diluted in DMSO across an 11-point dosing range created using a 3-fold serial dilution protocol at a top dose of 10 μM. The assay was run in 384-well, polystyrene, low-volume, non-treated, white microtiter plates (Costar 4512) in a final volume of 12 μL. Low control wells included 1 μM of a potent B-Raf inhibitor as a control. The assays were incubated at ambient temperature (typically 22° C.) for 60 min and then read on a PerkinElmer EnVision microplate reader using standard TRF settings (λEx=320 nm, λEm=615 & 665 nm). The ratioed counts (665 nm/615 nm) were converted to percent of control (POC) using the following equation:
[formula] • where: • Xmax Average Uninhibited Controls • Xmin Average Background
A 4-parameter logistic model was the fit to the POC data for each compound. From that fit, the IC50 was estimated and is defined as the concentration of compound at which the best-fit curve crosses 50 POC.

A375 cells = test: Cellular phospho-ERK inhibition assay in A375 cells; type: cell-based; conditions: Homo sapiens, A-375, A375 cells (head prints A357), 2 hours treatment, read-out: A357 cell IC50
Procedure: A375 and H1755 cells were obtained from the American Type Culture Collection (ATCC, Rockville, MD). A375 cells were maintained in DMEM growth medium containing 10% FBS. H1755 cells were maintained in RPMI growth medium containing 10% FBS.
Cells were harvested according to standard protocols, counted and plated onto flat-bottom, 96-well tissue culture plates (Costar #3599) at 2.5×10^4 cells/well for A375 cells and 1.5×10^4 cells/well for H1755 cells in 100 μL/well of growth medium containing 10% FBS. After an overnight incubation at 37° C. with 5% CO2 cells were treated for 2 hours at 37° C., 5% CO2 with compounds prepared as a 9-point, 1:3.33 fold dilution series with final compound concentrations ranging from 66 pM-10 μM and a constant DMSO concentration of 0.25%. Control wells contained either 0.25% DMSO alone (uninhibited control) or 10 μM binimetinib (complete inhibition control). The levels of phosphorylated ERK are determined using an In Cell Western protocol: following compound incubation, growth medium was discarded, and cells were fixed with 0.4% formaldehyde in PBS for 20 minutes at room temperature. Cells were permeabilized with 100% methanol for 10 minutes at room temperature. Plates were washed with PBS containing 0.05% Tween-20 and blocked for 1 hour at room temperature with LI-COR Blocking Buffer (LI-COR Biosciences; Cat #927-40000). Plates were then incubated for 2 hours at room temperature with 50 μL of a 1:400 dilution of anti-phospho-ERK1/2 (Thr202/Tyr204) (Cell Signaling; Cat #9101) and a 1:1000 dilution of anti-GAPDH (Millipore; Cat #MAB374) in LI-COR blocking buffer containing 0.05% Tween-20. Plates were washed with PBS containing […] Tween-20 then incubated at room temperature for 1 hour with 50 μL of a 1:1000 dilution of anti-rabbit AlexaFluor 680 (Life Technologies; Cat #A21109) and a 1:1000 dilution of anti-mouse IRDye 800CW (LI-COR; Cat #926-32210) in LI-COR blocking buffer containing 0.05% Tween-20. Plates were analyzed by reading on an Odyssey CLx infrared scanner. For each well, the phospho-ERK signal was normalized to the GAPDH signal and converted to POC using the following equation:
[formula] • Where: • Xmax Average Uninhibited Controls • Xmin Average Complete Inhibition Controls IC50 values were then calculated using a 4-parameter fit in XLfit software and are provided in Table A1.

[2] = MDR1 LLC-PK1 and BCRP MDCKII permeability assay: permeability coefficient (Papp); type: in vitro ADME
Text: (§1) Final organic concentration in the assay was 1%.

P-gp (MDR1) = P-gp (MDR1) (Homo sapiens (Human), UniProt P08183); test: MDR1 LLC-PK1 permeability assay: efflux ratio; type: in vitro ADME; conditions: pig
P-gp (MDR1), sequence (P08183 whole entry, species assumed): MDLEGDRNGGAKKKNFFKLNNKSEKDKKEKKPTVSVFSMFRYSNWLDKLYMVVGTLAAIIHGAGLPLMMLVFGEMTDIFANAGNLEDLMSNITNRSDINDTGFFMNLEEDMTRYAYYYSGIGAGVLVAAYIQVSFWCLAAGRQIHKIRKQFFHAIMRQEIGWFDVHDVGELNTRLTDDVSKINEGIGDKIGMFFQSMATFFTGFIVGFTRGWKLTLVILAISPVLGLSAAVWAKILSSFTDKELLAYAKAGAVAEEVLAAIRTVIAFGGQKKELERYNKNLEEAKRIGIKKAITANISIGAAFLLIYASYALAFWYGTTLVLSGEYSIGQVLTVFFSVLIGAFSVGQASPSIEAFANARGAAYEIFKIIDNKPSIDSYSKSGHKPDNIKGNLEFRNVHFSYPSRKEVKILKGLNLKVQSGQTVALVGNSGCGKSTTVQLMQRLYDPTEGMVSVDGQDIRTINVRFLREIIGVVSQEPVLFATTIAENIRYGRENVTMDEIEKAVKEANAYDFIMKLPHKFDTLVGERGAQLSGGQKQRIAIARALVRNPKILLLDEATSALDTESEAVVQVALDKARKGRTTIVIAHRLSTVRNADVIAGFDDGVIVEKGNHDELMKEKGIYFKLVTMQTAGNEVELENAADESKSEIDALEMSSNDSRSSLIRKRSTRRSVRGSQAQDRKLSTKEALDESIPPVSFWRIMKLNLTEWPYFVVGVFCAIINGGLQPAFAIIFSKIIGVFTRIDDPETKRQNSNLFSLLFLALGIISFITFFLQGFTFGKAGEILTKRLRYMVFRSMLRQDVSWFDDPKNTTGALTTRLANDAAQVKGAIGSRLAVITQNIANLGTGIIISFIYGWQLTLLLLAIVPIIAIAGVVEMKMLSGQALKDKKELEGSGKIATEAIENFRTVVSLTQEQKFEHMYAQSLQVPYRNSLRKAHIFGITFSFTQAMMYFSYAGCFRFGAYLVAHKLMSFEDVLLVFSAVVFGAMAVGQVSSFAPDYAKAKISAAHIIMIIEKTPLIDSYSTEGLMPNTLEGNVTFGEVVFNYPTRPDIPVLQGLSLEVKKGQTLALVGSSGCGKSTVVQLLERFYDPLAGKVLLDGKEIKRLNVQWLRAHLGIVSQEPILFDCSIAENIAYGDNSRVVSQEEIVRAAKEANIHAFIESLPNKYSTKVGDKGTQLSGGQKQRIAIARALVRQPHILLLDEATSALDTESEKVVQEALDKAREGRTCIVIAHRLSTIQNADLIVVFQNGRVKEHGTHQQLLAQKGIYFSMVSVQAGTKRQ
Text: as §1

BCRP = BCRP (Homo sapiens (Human), UniProt Q9UNQ0); test: BCRP MDCKII permeability assay: efflux ratio; type: in vitro ADME; conditions: dog
BCRP, sequence (Q9UNQ0 whole entry): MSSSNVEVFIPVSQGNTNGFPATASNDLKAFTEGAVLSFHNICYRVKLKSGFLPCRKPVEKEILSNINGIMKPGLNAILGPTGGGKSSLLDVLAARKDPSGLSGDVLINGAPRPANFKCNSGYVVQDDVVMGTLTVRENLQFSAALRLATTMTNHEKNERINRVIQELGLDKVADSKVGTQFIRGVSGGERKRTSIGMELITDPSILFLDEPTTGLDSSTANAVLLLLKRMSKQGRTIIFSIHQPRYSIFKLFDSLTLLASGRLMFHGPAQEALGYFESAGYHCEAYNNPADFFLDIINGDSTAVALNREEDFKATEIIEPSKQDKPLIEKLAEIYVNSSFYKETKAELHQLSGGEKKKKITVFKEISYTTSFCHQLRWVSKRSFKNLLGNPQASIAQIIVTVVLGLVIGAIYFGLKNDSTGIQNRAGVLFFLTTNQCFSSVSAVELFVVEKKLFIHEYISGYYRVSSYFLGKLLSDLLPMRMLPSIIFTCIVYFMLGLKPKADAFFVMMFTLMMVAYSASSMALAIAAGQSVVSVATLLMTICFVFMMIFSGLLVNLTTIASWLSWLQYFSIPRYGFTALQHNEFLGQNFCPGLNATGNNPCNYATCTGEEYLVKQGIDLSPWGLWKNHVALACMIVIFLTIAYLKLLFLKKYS

full-length FLAG-tagged B-Raf(V600E), sequence (P15056 whole entry V600E): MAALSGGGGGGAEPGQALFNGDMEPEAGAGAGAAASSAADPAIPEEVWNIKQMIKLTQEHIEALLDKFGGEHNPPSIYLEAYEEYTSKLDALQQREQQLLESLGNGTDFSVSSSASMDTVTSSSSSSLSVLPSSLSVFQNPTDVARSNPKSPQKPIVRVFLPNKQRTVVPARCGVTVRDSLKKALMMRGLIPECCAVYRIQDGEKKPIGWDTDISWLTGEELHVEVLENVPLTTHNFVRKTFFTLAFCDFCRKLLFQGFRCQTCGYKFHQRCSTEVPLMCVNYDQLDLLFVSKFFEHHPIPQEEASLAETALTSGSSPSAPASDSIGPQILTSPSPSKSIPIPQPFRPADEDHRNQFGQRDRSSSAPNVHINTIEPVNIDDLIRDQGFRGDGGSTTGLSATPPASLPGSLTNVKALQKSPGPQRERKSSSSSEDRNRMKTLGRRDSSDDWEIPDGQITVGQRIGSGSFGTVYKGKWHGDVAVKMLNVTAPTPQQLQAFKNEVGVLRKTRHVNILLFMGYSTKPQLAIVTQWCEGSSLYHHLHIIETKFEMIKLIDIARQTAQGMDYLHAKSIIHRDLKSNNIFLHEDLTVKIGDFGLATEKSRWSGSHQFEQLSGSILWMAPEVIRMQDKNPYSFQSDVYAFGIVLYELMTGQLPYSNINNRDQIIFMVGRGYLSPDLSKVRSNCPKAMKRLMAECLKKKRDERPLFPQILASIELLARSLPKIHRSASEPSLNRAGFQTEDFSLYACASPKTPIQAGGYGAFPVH

IC50 [1] [nM] | IC50 (A375 cells) [nM] | Papp at 2 h, 1 µM [2] [×10⁻⁶ cm/s] | efflux ratio at 2 h, 1 µM (P-gp (MDR1)) | efflux ratio at 2 h, 1 µM (BCRP) | SMILES
52 | 178 | 26 | 1.7 | 0.9 | Cc1c(Nc2c(F)ccc(NS(=O)(=O)N3C[C@H](F)[C@@H](F)C3)c2Cl)ccc2ncn(C)c(=O)c12 (relative stereo) [Example 85, (trans)-N-(2-chloro-3-((3,5-dimethyl-4-oxo-3,4-dihydroquinazolin-6-yl)amino)-4-fluorophenyl)-3,4-difluoropyrrolidine-1-sulfonamide]
111 | 138 | 28 | 1.3 | 1 | Cc1c(Nc2c(F)ccc(NS(=O)(=O)N3CCOCC3)c2Cl)ccc2ncn(C)c(=O)c12 [Example 79, N-(2-chloro-3-((3,5-dimethyl-4-oxo-3,4-dihydroquinazolin-6-yl)amino)-4-fluorophenyl)morpholine-4-sulfonamide]
53 | 133 | 18 | 0.8 | 0.8 | Cc1c(Nc2c(F)ccc(NS(=O)(=O)N3CCCCC3)c2Cl)ccc2ncn(C)c(=O)c12 [Example 84, N-(2-chloro-3-((3,5-dimethyl-4-oxo-3,4-dihydroquinazolin-6-yl)amino)-4-fluorophenyl)piperidine-1-sulfonamide]
27 | 203 | 25 | 1.2 | 0.6 | Cc1c(Nc2c(F)ccc(NS(=O)(=O)N3CC4CC4(C)C3)c2Cl)ccc2ncn(C)c(=O)c12 (centres unmarked) [Example 88]
9 | 123 | 17 | 1.5 | 0.8 | Cc1c(Oc2c(F)ccc(NS(=O)(=O)N3CC4CC4C3)c2Cl)ccc2ncn(C)c(=O)c12 (centres unmarked) [Example 91]
20 | 49 | 31 | 1.1 | 1.1 | Cc1c(Nc2c(F)c(F)cc(NS(=O)(=O)N(C)C)c2Cl)ccc2ncn(C)c(=O)c12 [Example 98, N-(2-chloro-3-((3,5-dimethyl-4-oxo-3,4-dihydroquinazolin-6-yl)amino)-4,5-difluorophenyl)-(N,N-dimethyl)-sulfamide]
10 | 21 | 28 | 1.6 | 1.5 | COCC1CN(S(=O)(=O)Nc2ccc(F)c(Oc3ccc4ncn(C)c(=O)c4c3C)c2Cl)C1 [Example 115, N-(2-chloro-3-((3,5-dimethyl-4-oxo-3,4-dihydroquinazolin-6-yl)oxy)-4-fluorophenyl)-3-(methoxymethyl)azetidine-1-sulfonamide]
4 | 15 | 34 | 2.7 | 2.1 | Cc1c(Oc2c(F)ccc(NS(=O)(=O)N3CC(F)C3)c2Cl)ccc2ncn(C)c(=O)c12 [Example 116, N-(2-chloro-3-((3,5-dimethyl-4-oxo-3,4-dihydroquinazolin-6-yl)oxy)-4-fluorophenyl)-3-fluoroazetidine-1-sulfonamide]
11 | 23 | 30 | 1.5 | 1.5 | COC1CN(S(=O)(=O)Nc2ccc(F)c(Oc3ccc4ncn(C)c(=O)c4c3C)c2Cl)C1 [Example 117, N-(2-chloro-3-((3,5-dimethyl-4-oxo-3,4-dihydroquinazolin-6-yl)oxy)-4-fluorophenyl)-3-methoxyazetidine-1-sulfonamide]
2 | 3 | 31 | 2.3 | 7.8 | Cn1cnc2ccc(Oc3c(F)ccc(NS(=O)(=O)N4CC(F)C4)c3Cl)c(F)c2c1=O [Example 122, N-(2-chloro-4-fluoro-3-((5-fluoro-3-methyl-4-oxo-3,4-dihydroquinazolin-6-yl)oxy)phenyl)-3-fluoroazetidine-1-sulfonamide]
4 | 5 | 32 | 2.5 | 5.4 | COC1CN(S(=O)(=O)Nc2ccc(F)c(Oc3ccc4ncn(C)c(=O)c4c3F)c2Cl)C1 [Example 123, N-(2-chloro-4-fluoro-3-((5-fluoro-3-methyl-4-oxo-3,4-dihydroquinazolin-6-yl)oxy)phenyl)-3-methoxyazetidine-1-sulfonamide]
8 | 37 | 36 | 2 | 1.5 | Cc1c(Nc2c(F)ccc(NS(=O)(=O)N3CC(COC(F)F)C3)c2Cl)ccc2ncn(C)c(=O)c12 [Example 137, N-(2-chloro-3-((3,5-dimethyl-4-oxo-3,4-dihydroquinazolin-6-yl)amino)-4-fluorophenyl)-3-((difluoromethoxy)methyl)azetidine-1-sulfonamide trifluoroacetate]
16 | 52 | 48 | 1.2 | 0.8 | COCC1(C)CN(S(=O)(=O)Nc2ccc(F)c(Nc3ccc4ncn(C)c(=O)c4c3C)c2Cl)C1 [Example 140, N-(2-chloro-3-((3,5-dimethyl-4-oxo-3,4-dihydroquinazolin-6-yl)amino)-4-fluorophenyl)-3-(methoxymethyl)-3-methylazetidine-1-sulfonamide trifluoroacetate]
20 | 23 | 29 | 1.7 | 2.2 | CCOC1CN(S(=O)(=O)Nc2ccc(F)c(Nc3ccc4ncn(C)c(=O)c4c3Cl)c2Cl)C1 [Example 141, N-(2-chloro-3-((5-chloro-3-methyl-4-oxo-3,4-dihydroquinazolin-6-yl)amino)-4-fluorophenyl)-3-ethoxyazetidine-1-sulfonamide]
24 | 20 | 21 | 3.2 | 2.5 | CCOC1CN(S(=O)(=O)Nc2ccc(F)c(Nc3ccc4ncn(C)c(=O)c4c3F)c2Cl)C1 [Example 142, N-(2-chloro-4-fluoro-3-((5-fluoro-3-methyl-4-oxo-3,4-dihydroquinazolin-6-yl)amino)phenyl)-3-ethoxyazetidine-1-sulfonamide]

SMILES | IC50 [1] [nM] | IC50 (A375 cells) [nM] | Papp at 2 h, 1 µM [2] [×10⁻⁶ cm/s] | efflux ratio at 2 h, 1 µM (P-gp (MDR1)) | efflux ratio at 2 h, 1 µM (BCRP)
Cc1c(Nc2c(F)ccc(NS(=O)(=O)N3CCC4(CC4)C3)c2Cl)ccc2ncn(C)c(=O)c12 [Example 82, N-(2-chloro-3-((3,5-dimethyl-4-oxo-3,4-dihydroquinazolin-6-yl)amino)-4-fluorophenyl)-5-azaspiro[2.4]heptane-5-sulfonamide trifluoroacetate] | 69 | 193 | 13 | 1.2 | 1

Reference: patent publication US12303509B2, “Compounds for the treatment of BRAF-associated diseases and disorders” (Pfizer Inc., priority 2020, dated 2025)
